In PubChem BioAssay (NCI):
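Where inhibition never reached the appropriate level, the endpoint shown equals the highest concentration tested. Otherwise, values were interpolated linearly from a five-concentration, 48-hour dose response in 96-well plates. GI50: concentration for 50% inhibition of growth. TGI marks complete inhibition of growth.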

Tests used:
Test in all cases: growth of human tumour cells (NCI), 48 h
[1] = tested on: 786-0 renal
[2] = tested on: A498 renal
[3] = tested on: A549 NSCLC
[4] = tested on: ACHN renal
[5] = tested on: CCRF-CEM leukemia
[6] = tested on: COLO 205 colon
[7] = tested on: DLD-1 colon
[8] = tested on: DMS 114 small cell lung
[9] = tested on: DMS 273 small cell lung
[10] = tested on: EKVX NSCLC
[11] = tested on: HCC-2998 colon
[12] = tested on: HCT-116 colon
[13] = tested on: HCT-15 colon
[14] = tested on: HL-60(TB) leukemia
[15] = tested on: HOP-62 NSCLC
[16] = tested on: HT29 colon
[17] = tested on: IGROV1 ovarian
[18] = tested on: K-562 leukemia
[19] = tested on: KM20L2 colon
[20] = tested on: LOX IMVI melanoma
[21] = tested on: LXFL 529 NSCLC
[22] = tested on: M14 melanoma
[23] = tested on: MALME-3M melanoma
[24] = tested on: MOLT-4 leukemia
[25] = tested on: NCI-H23 lung
[26] = tested on: NCI-H460 lung
[27] = tested on: OVCAR-3 ovarian
[28] = tested on: OVCAR-4 ovarian
[29] = tested on: OVCAR-8 ovarian
[30] = tested on: RPMI-8226 leukemia
[31] = tested on: RXF 393 renal
[32] = tested on: RXF-631 renal
[33] = tested on: SF-268 CNS
[34] = tested on: SF-295 CNS
[35] = tested on: SF-539 CNS
[36] = tested on: SK-MEL-2 melanoma
[37] = tested on: SK-MEL-28 melanoma
[38] = tested on: SK-MEL-5 melanoma
[39] = tested on: SN12C renal
[40] = tested on: SNB-19 CNS
[41] = tested on: SNB-75 CNS
[42] = tested on: SR leukemia
[43] = tested on: SW-620 colon
[44] = tested on: TK-10 renal
[45] = tested on: U251 CNS
[46] = tested on: UACC-257 melanoma
[47] = tested on: UACC-62 melanoma
[48] = tested on: UO-31 renal
[49] = tested on: XF 498 CNS
[50] = tested on: CAKI-1 renal
[51] = tested on: HOP-92 NSCLC
[52] = tested on: KM12 colon
[53] = tested on: NCI-H226 lung
[54] = tested on: NCI-H522 lung
[55] = tested on: OVCAR-5 ovarian
[56] = tested on: SK-OV-3 ovarian
[57] = tested on: SNB-78 CNS
[58] = tested on: M19-MEL melanoma

CC(C)c1cccc(C(C)C)c1NC(=S)N=Nc1cc(C(C)(C)C)c(O)c(C(C)(C)C)c1
TGI [1]: 35.7 µM | TGI [2]: 34.4 µM | TGI [3]: 45.6 µM | TGI [4]: > 100 µM | TGI [5]: 66.6 µM | TGI [6]: 44.6 µM | TGI [7]: > 100 µM | TGI [8]: 55.5 µM | TGI [9]: > 100 µM | TGI [10]: > 100 µM | TGI [11]: 54.3 µM | TGI [12]: 13.1 µM | TGI [13]: > 100 µM | TGI [14]: 65.9 µM | TGI [15]: 32.3 µM | TGI [16]: > 100 µM | TGI [17]: 62.6 µM | TGI [18]: 78.8 µM | TGI [19]: 58.6 µM | TGI [20]: 34.2 µM | TGI [21]: > 100 µM | TGI [22]: 84.3 µM | TGI [23]: 63.8 µM | TGI [24]: > 100 µM | TGI [25]: 31.8 µM | TGI [26]: 67.8 µM | TGI [27]: 52.2 µM | TGI [28]: 43.1 µM | TGI [29]: 38 µM | TGI [30]: 85.9 µM | TGI [31]: 30.9 µM | TGI [32]: > 100 µM | TGI [33]: > 100 µM | TGI [34]: > 100 µM | TGI [35]: 39 µM | TGI [36]: 35.8 µM | TGI [37]: 95.7 µM | TGI [38]: 37.3 µM | TGI [39]: 52.4 µM | TGI [40]: 48.5 µM | TGI [41]: 58 µM | TGI [42]: > 100 µM | TGI [43]: 78 µM | TGI [44]: 71.5 µM | TGI [45]: 30.1 µM | TGI [46]: 43.7 µM | TGI [47]: 50 µM | TGI [48]: 74.7 µM | TGI [49]: 43.3 µM

CCCCCCCCCCCc1noc2c1C(=O)C(O)CC2 (centres undefined)
TGI [1]: 34.1 µM | TGI [2]: 88.5 µM | TGI [3]: 55 µM | TGI [4]: > 100 µM | TGI [50]: > 100 µM | TGI [5]: 64.9 µM | TGI [6]: 83 µM | TGI [9]: 30.4 µM | TGI [10]: > 100 µM | TGI [12]: 41.6 µM | TGI [13]: 43.7 µM | TGI [14]: 65.5 µM | TGI [15]: > 100 µM | TGI [51]: 42.8 µM | TGI [16]: 33.2 µM | TGI [17]: > 100 µM | TGI [18]: 42.8 µM | TGI [52]: 57.1 µM | TGI [19]: 31.8 µM | TGI [20]: 34.4 µM | TGI [21]: 33.1 µM | TGI [22]: 94.6 µM | TGI [24]: 65.7 µM | TGI [53]: 35.9 µM | TGI [25]: 31.9 µM | TGI [26]: 37.7 µM | TGI [54]: 40 µM | TGI [27]: 34.3 µM | TGI [28]: 33 µM | TGI [55]: 42.6 µM | TGI [29]: 35.8 µM | TGI [30]: 67.7 µM | TGI [31]: 27.5 µM | TGI [32]: 36.7 µM | TGI [33]: > 100 µM | TGI [34]: 39.6 µM | TGI [35]: 54.7 µM | TGI [36]: 38.7 µM | TGI [37]: 75.2 µM | TGI [38]: 30.2 µM | TGI [56]: 94.8 µM | TGI [39]: 30.4 µM | TGI [40]: 67.2 µM | TGI [41]: 84.5 µM | TGI [57]: 65.1 µM | TGI [42]: 78 µM | TGI [43]: 35.6 µM | TGI [44]: > 100 µM | TGI [45]: 28.3 µM | TGI [46]: 42.3 µM | TGI [47]: 33.8 µM | TGI [48]: 71.2 µM | TGI [49]: 27 µM

CC(C)OP(=O)(OC(C)C)C([CH2][Sn]([CH3])([CH3])[Cl])P(=O)(OC(C)C)OC(C)C
GI50 [1]: 16.7 µM | TGI [1]: 33.1 µM | GI50 [2]: 19.3 µM | TGI [2]: > 100 µM | GI50 [3]: 27.7 µM | TGI [3]: > 100 µM | GI50 [4]: 31 µM | TGI [4]: > 100 µM | GI50 [50]: 19.9 µM | TGI [50]: 55.7 µM | GI50 [5]: 20.7 µM | TGI [5]: 64.9 µM | GI50 [6]: 15.2 µM | TGI [6]: 29.1 µM | GI50 [7]: 36.8 µM | TGI [7]: > 100 µM | GI50 [8]: 21.9 µM | TGI [8]: 67 µM | GI50 [9]: 19.8 µM | TGI [9]: 53.5 µM | GI50 [10]: 30.3 µM | TGI [10]: 98 µM | GI50 [11]: 22.6 µM | TGI [11]: 40.3 µM | GI50 [12]: 19.7 µM | TGI [12]: 42.8 µM | GI50 [13]: 20.2 µM | TGI [13]: 47.4 µM | GI50 [14]: 4.56 µM | TGI [14]: 18.2 µM | GI50 [15]: 20.9 µM | TGI [15]: 40.4 µM | GI50 [51]: 13.7 µM | TGI [51]: 34.4 µM | GI50 [16]: 22.1 µM | TGI [16]: 79.2 µM | GI50 [17]: 24.5 µM | TGI [17]: 97.4 µM | GI50 [18]: 25.3 µM | TGI [18]: > 100 µM | GI50 [52]: 13.4 µM | TGI [52]: 41.9 µM | GI50 [19]: 17.5 µM | TGI [19]: 34.6 µM | GI50 [21]: 15 µM | TGI [21]: 29.4 µM | GI50 [22]: 16.4 µM | TGI [22]: 31.4 µM | GI50 [58]: 19.8 µM | TGI [58]: 49.9 µM | GI50 [23]: 16.3 µM | TGI [23]: 33.2 µM | GI50 [24]: 18.2 µM | TGI [24]: 46.2 µM | GI50 [53]: 21.2 µM | TGI [53]: 41.3 µM | GI50 [25]: 18.1 µM | TGI [25]: 44.3 µM | GI50 [26]: 16 µM | TGI [26]: 36.3 µM | GI50 [54]: 6.6 µM | TGI [54]: 23.5 µM | GI50 [27]: 20.2 µM | TGI [27]: 72.5 µM | GI50 [28]: 26.8 µM | TGI [28]: > 100 µM | GI50 [55]: 31.5 µM | TGI [55]: > 100 µM | GI50 [29]: 30.2 µM | TGI [29]: > 100 µM | GI50 [30]: 15.2 µM | TGI [30]: 35.1 µM | GI50 [32]: 38.3 µM | TGI [32]: > 100 µM | GI50 [34]: 19.7 µM | TGI [34]: 48.7 µM | GI50 [35]: 24.2 µM | TGI [35]: 51.5 µM | GI50 [36]: 15.6 µM | TGI [36]: 29.9 µM | GI50 [37]: 21.3 µM | TGI [37]: 74.9 µM | GI50 [38]: 16.5 µM | TGI [38]: 31 µM | GI50 [56]: 25.5 µM | TGI [56]: 64 µM | GI50 [39]: 27.9 µM | TGI [39]: > 100 µM | GI50 [40]: 30.2 µM | TGI [40]: 86.9 µM | GI50 [41]: 19.3 µM | TGI [41]: 43.3 µM | GI50 [43]: 20.2 µM | TGI [43]: 42.5 µM | GI50 [44]: 23.2 µM | TGI [44]: 69.9 µM | GI50 [45]: 20.4 µM | TGI [45]: 46.3 µM | GI50 [46]: 21.3 µM | TGI [46]: 65.3 µM | GI50 [47]: 14.1 µM | TGI [47]: 32.9 µM | GI50 [48]: 19.9 µM | TGI [48]: 43.2 µM | GI50 [49]: 14.5 µM | TGI [49]: 35.1 µM

S=C(N/N=C/c1ccccc1)NC12CC3CC(CC(C3)C1)C2
TGI [1]: > 100 µM | TGI [2]: > 100 µM | TGI [3]: > 100 µM | TGI [4]: > 100 µM | TGI [50]: > 100 µM | TGI [5]: 92.4 µM | TGI [6]: 89.6 µM | TGI [9]: 67.9 µM | TGI [10]: > 100 µM | TGI [12]: > 100 µM | TGI [13]: > 100 µM | TGI [14]: > 100 µM | TGI [15]: > 100 µM | TGI [51]: 56.2 µM | TGI [16]: 26.5 µM | TGI [17]: > 100 µM | TGI [18]: > 100 µM | TGI [52]: > 100 µM | TGI [19]: 76.2 µM | TGI [20]: 45.1 µM | TGI [21]: > 100 µM | TGI [22]: > 100 µM | TGI [24]: 74.2 µM | TGI [53]: > 100 µM | TGI [25]: > 100 µM | TGI [26]: > 100 µM | TGI [54]: > 100 µM | TGI [27]: 83.4 µM | TGI [28]: > 100 µM | TGI [55]: > 100 µM | TGI [29]: > 100 µM | TGI [30]: 95.5 µM | TGI [31]: > 100 µM | TGI [32]: > 100 µM | TGI [33]: > 100 µM | TGI [34]: > 100 µM | TGI [35]: > 100 µM | TGI [36]: > 100 µM | TGI [37]: > 100 µM | TGI [38]: > 100 µM | TGI [56]: > 100 µM | TGI [39]: 48.8 µM | TGI [40]: > 100 µM | TGI [42]: > 100 µM | TGI [43]: > 100 µM | TGI [44]: > 100 µM | TGI [45]: > 100 µM | TGI [46]: > 100 µM | TGI [47]: > 100 µM | TGI [48]: > 100 µM | TGI [49]: > 100 µM
